Tests used:
human μ opiate receptor = biological target: T1, human μ opiate receptor (Homo sapiens, UniProt P35372); assay: Affinity for the human μ opiate receptor ([3H]-naloxone displacement, CHO-K1 receptor membrane preparation, SPA); assay type: binding; settings: test concentration of 1 μM
T1 construct: purchased PerkinElmer Life Sciences, Zaventem, Belgium RB-HOM; host or cells: CHO-K1 cells (membrane preparation)
Summary of the method: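 CHO-K1 membranes expressing human μ receptor incubated 90 min at room temperature with 1 nmol/l [3H]-naloxone and WGA-SPA beads in 50 mmol/l Tris-HCl, 0.06% BSA; 100 μmol/l naloxone defines non-specific binding. Values are % inhibition of specific binding at 1 μM; IC50 converted to Ki by Cheng-Prusoff.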

[1] = biological target: T2, bradykinin 1 receptor (B1R) of the rat (Rattus norvegicus, UniProt P97583); assay: Functional investigation on the rat bradykinin 1 receptor (B1R), Ca2+ FLIPR assay in CHO K1 rB1R cells; assay type: cell-based; settings: B1R antagonism rat; test substance 10 μM; Ca2+ FLIPR, CHO K1 rB1R cells
T2 construct: expressed in transfected cells; host or cells: CHO K1 cells
T2 sequence (P97583 1-337): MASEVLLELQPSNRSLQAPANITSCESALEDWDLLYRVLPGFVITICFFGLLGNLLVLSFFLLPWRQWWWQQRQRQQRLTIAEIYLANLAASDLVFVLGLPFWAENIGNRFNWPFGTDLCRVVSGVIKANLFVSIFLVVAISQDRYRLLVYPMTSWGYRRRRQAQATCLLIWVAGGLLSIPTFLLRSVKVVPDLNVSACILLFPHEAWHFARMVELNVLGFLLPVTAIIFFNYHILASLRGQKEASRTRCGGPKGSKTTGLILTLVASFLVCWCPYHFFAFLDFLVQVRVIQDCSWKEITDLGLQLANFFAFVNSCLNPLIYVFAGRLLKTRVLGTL
Summary of the method: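 Stably transfected CHO K1 cells loaded with Fluo-4; FLIPR Ca2+ fluorescence peak (ex 488/em 540 nm). Compound added first (agonism vs Lys-Des-Arg9-bradykinin ≥50 nM human, Des-Arg9-bradykinin 10 μM rat), then after 10-20 min agonist at EC80; antagonism as % inhibition, IC50 from concentration series, n=2-3, N≥2.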

T1 sequence (P35372 whole entry): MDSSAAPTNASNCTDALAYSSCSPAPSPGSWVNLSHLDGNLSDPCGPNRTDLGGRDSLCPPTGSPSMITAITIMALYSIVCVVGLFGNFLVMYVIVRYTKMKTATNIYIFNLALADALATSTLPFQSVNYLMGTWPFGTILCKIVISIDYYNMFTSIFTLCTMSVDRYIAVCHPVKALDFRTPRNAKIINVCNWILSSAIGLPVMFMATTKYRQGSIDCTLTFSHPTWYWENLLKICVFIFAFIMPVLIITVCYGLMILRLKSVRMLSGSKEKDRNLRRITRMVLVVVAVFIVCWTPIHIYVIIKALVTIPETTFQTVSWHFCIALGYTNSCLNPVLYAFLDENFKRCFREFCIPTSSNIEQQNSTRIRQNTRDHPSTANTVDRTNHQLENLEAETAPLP

Compound | μ (binding on the μ opioid receptor, % inhibition) (human μ opiate receptor) [%] | B1R Ant. r [10 μM] % Inhibition [1] [%]
CN(C)C(c1cccc(F)c1)C1CCC(NC(=O)COC2CCN(S(=O)(=O)c3ccccc3)CC2)CC1 (stereo not shown) [Example 335] | 58 | 2
CN(C)C(c1cccc(F)c1)C1CCC(CNC(=O)COC2CCCN(S(=O)(=O)c3ccccc3)C2)CC1 (stereo not shown) [Example 309] | 69 | −2
COc1ccc(S(=O)(=O)N2CCCCC2COCC(=O)NCC2CCC(C(c3ccc(F)cc3)N(C)C)CC2)cc1 (stereo not shown) [Example 345] | 64 | 77
CN(C)C(c1cccc(F)c1)C1CCC(CCNC(=O)COCCN(Cc2ccccc2)S(=O)(=O)c2ccccc2)CC1 (stereo not shown) [Example 278] | 77 | 7
COc1ccc(S(=O)(=O)N2CCCCC2COCC(=O)NCC2CCC(C(c3ccc(Cl)cc3)N(C)C)CC2)c(OC)c1 (stereo not shown) [Example 280] | 73 | 36
CN(C)C(c1ccc(F)cc1)C1CCC(NC(=O)COC2CCN(S(=O)(=O)c3ccc(Cl)cc3Cl)C2)CC1 (stereo not shown) [Example 290] | 67 | 37
CN(C)C(c1cccc(F)c1)C1CCC(CNC(=O)COCCN(Cc2ccccc2)S(=O)(=O)c2ccccc2)CC1 (stereo not shown) [Example 296] | 64 | 24
CN(C)C(c1cccc(F)c1)C1CCC(CNC(=O)COCCN(C)S(=O)(=O)c2ccc(OC(F)(F)F)cc2)CC1 (stereo not shown) [Example 303] | 66 | 29
COc1ccc(S(=O)(=O)N2CCCCC2COCC(=O)NC2CCC(C(c3cccc(F)c3)N(C)C)CC2)c(OC)c1 (stereo not shown) [Example 322] | 70 | 6
CN(C)C(c1ccc(Cl)cc1)C1CCC(CNC(=O)COC2CCN(S(=O)(=O)c3cccc(C(F)(F)F)c3)C2)CC1 (stereo not shown) [Example 331] | 61 | 44
COc1ccc(S(=O)(=O)N2CCCCC2CCOCC(=O)NCC2CCC(C(c3ccc(F)cc3)N(C)C)CC2)cc1 (stereo not shown) [Example 350] | 61 | 35
CN(C)C(c1ccc(F)cc1)C1CCC(CNC(=O)COCCN(Cc2ccccc2)S(=O)(=O)c2ccccc2)CC1 (stereo not shown) [Example 342] | 57 | −20
COc1cc(C)c(S(=O)(=O)N2CCC(OCC(=O)NCCC3CCC(C(c4cccc(F)c4)N(C)C)CC3)C2)c(C)c1 (stereo not shown) [Example 307] | 73 | 94
CN(C)C(c1ccc(F)cc1)C1CCC(NC(=O)COCCN(Cc2ccccc2)S(=O)(=O)c2ccccc2)CC1 (stereo not shown) [Example 336] | 59 | 8
CN(C)C(c1ccc(F)cc1)C1CCC(CNC(=O)COCCN(C)S(=O)(=O)c2c(Cl)cccc2Cl)CC1 (stereo not shown) [Example 334] | 66 | 83
CN(C)C(c1ccc(Cl)cc1)C1CCC(CNC(=O)COCCN(C)S(=O)(=O)c2c(Cl)cc(Cl)cc2Cl)CC1 (stereo not shown) [Example 318] | 65 | 3
COc1ccc(S(=O)(=O)N(C)CCOCC(=O)NCCC2CCC(C(c3cccc(F)c3)N(C)C)CC2)cc1OC (stereo not shown) [Example 293] | 75 | 2
CN(C)C(c1cccc(F)c1)C1CCC(CNC(=O)COC2CCN(S(=O)(=O)c3ccccc3)C2)CC1 (stereo not shown) [Example 355] | 66 | 28
CN(C)C(c1ccc(Cl)cc1)C1CCC(CCNC(=O)COCCN(C)S(=O)(=O)c2ccc(Cl)cc2Cl)CC1 (stereo not shown) [Example 291] | 65 | 36

Compound | μ (binding on the μ opioid receptor, % inhibition) (human μ opiate receptor) [%] | B1R Ant. r [10 μM] % Inhibition [1] [%]
COc1ccc(S(=O)(=O)N2Cc3ccccc3CC2COCC(=O)NCC2CCC(C(c3ccc(F)cc3)N(C)C)CC2)cc1 (stereo not shown) [Example 288] | 65 | 20
COc1ccc(S(=O)(=O)N2CCCC2COCC(=O)NCCC2CCC(C(c3ccc(Cl)cc3)N(C)C)CC2)cc1 (stereo not shown) [Example 346] | 63 | 45
CN(C)C(c1ccc(Cl)cc1)C1CCC(CNC(=O)COC2CCN(S(=O)(=O)c3ccccc3)C2)CC1 (stereo not shown) [Example 299] | 63 | −13
CN(C)C(c1cccc(F)c1)C1CCC(CNC(=O)COCCC2CCN(S(=O)(=O)c3ccccc3)CC2)CC1 (stereo not shown) [Example 333] | 65 | 15
COc1ccc(S(=O)(=O)N2CCCCC2CCOCC(=O)NCC2CCC(C(c3ccc(Cl)cc3)N(C)C)CC2)cc1 (stereo not shown) [Example 312] | 61 | 31
CN(C)C(c1cccc(F)c1)C1CCC(CCNC(=O)COC2CCCN(S(=O)(=O)c3ccccc3)C2)CC1 (stereo not shown) [Example 326] | 67 | −6
CCN(CCOCC(=O)NCC1CCC(C(c2ccc(F)cc2)N(C)C)CC1)S(=O)(=O)c1c(C)cc(OC)c(C)c1C (stereo not shown) [Example 327] | 67 | 68
CN(C)C(c1cccc(F)c1)C1CCC(NC(=O)COCCN(C)S(=O)(=O)c2cccc(C(F)(F)F)c2)CC1 (stereo not shown) [Example 297] | 74 | 16
COc1ccc(S(=O)(=O)N(C)CCOCC(=O)NCCC2CCC(C(c3ccc(Cl)cc3)N(C)C)CC2)cc1OC (stereo not shown) [Example 339] | 63 | 31
Cc1ccc(S(=O)(=O)N(C)CCOCC(=O)NCC2CCC(C(c3ccc(F)cc3)N(C)C)CC2)cc1 (stereo not shown) [Example 362] | 54 | 3
CN(C)C(c1cccc(F)c1)C1CCC(CCNC(=O)COCC2CCCN(S(=O)(=O)c3ccccc3)C2)CC1 (stereo not shown) [Example 295] | 71 | 44
CN(C)C(c1cccc(F)c1)C1CCC(NC(=O)COC2CCN(S(=O)(=O)c3ccc(Cl)cc3Cl)C2)CC1 (stereo not shown) [Example 283] | 74 | 24
Cc1ccc(S(=O)(=O)N(C)CCOCC(=O)NCCC2CCC(C(c3ccc(Cl)cc3)N(C)C)CC2)cc1 (stereo not shown) [Example 306] | 60 | 14
CN(C)C(c1ccc(F)cc1)C1CCC(CNC(=O)COC2CCCCC2N(C)S(=O)(=O)c2ccc(Cl)c(Cl)c2)CC1 (stereo not shown) [Example 359] | 60 | −4
COc1cc(C)c(S(=O)(=O)N2CCN(CCOCC(=O)NCCC3CCC(C(c4ccc(Cl)cc4)N(C)C)CC3)CC2)c(C)c1C (stereo not shown) [Example 320] | 65 | −8
CN(C)C(c1cccc(F)c1)C1CCC(CCNC(=O)COCCN2CCN(S(=O)(=O)c3ccccc3)CC2)CC1 (stereo not shown) [Example 325] | 68 | 6
CN(C)C(c1cccc(F)c1)C1CCC(CNC(=O)COCCN2CCN(S(=O)(=O)c3ccccc3)CC2)CC1 (stereo not shown) [Example 308] | 60 | 17
COc1cc(C)c(S(=O)(=O)N(CCOCC(=O)NCCC2CCC(C(c3cccc(F)c3)N(C)C)CC2)Cc2ccccc2)c(C)c1 (stereo not shown) [Example 358] | 71 | 27
COc1cc(C)c(S(=O)(=O)N2CCC(OCC(=O)NC3CCC(C(c4cccc(F)c4)N(C)C)CC3)CC2)c(C)c1C (stereo not shown) [Example 286] | 76 | −2
